Experimental data reported in PMC8643619 (Plant and Cell Physiology, 2021).

What was measured:
[1] = test system: PcAAE1; test: coupled NADH oxidation assay; format: biochemical, Pogostemon cablin; details: 10 mM MgCl2, pH 7.5, 30°C
[2] = test system: PcAAE2; test: coupled NADH oxidation assay; format: biochemical, Pogostemon cablin; details: 10 mM MgCl2, pH 7.5, 30°C

Km ([2]; 1 mM CoA, 5 mM ATP) [µM]	SMILES	other results
570 ± 86.5	CCCC(=O)O [Butyric acid]	Km ([1]; 1 mM CoA, 5 mM ATP): 161 ± 5 µM
41.5 ± 2.4	CCCCCC(=O)O [Hexanoic acid]	–
–	Nc1ncnc2c1ncn2[C@@H]1O[C@H](COP(=O)(O)OP(=O)(O)OP(=O)(O)O)[C@@H](O)[C@H]1O [ATP]	Km ([1]; co-substrate isovaleric acid 1 mM, CoA 1 mM): 89 µM; Km ([2]; co-substrate 4-methylvaleric acid 1 mM, CoA 1 mM): 160 µM
53.9 ± 2.7	CCCCC(=O)O [Valeric acid]	–
217 ± 13.1	CC(C)CC(=O)O [Isovaleric acid]	Km ([1]; 1 mM CoA, 5 mM ATP): 12.9 ± 0.8 µM
–	CC(C)(COP(=O)(O)OP(=O)(O)OC[C@H]1O[C@@H](n2cnc3c(N)ncnc32)[C@H](O)[C@@H]1OP(=O)(O)O)[C@@H](O)C(=O)NCCC(=O)NCCS [CoA]	Km ([1]; co-substrate isovaleric acid 1 mM, 5 mM ATP): 28.2 µM; Km ([2]; co-substrate 4-methylvaleric acid 1 mM, 5 mM ATP): 40.2 µM
84.5 ± 7.1	CCCCCCC(=O)O [Heptanoic acid]	–
176 ± 20	CC(C)CCCC(=O)O [5-Methylhexanoic acid]	–
43.4 ± 5.1	CC(C)CCC(=O)O [4-Methylvaleric acid]	–
